Where two headings read alike, the source gives them in different places.
System: Mycosphaerella graminicola; Anamorph: Septoria tritici; Bayer Code SEPTTR
Assay: Leaf blotch of wheat, foliar fungicide treatment, one day protectant (1DP) or three day curative (3DC)
Assay type: in vivo, Septoria tritici on wheat plants (variety Yuma)
Details: Zymoseptoria tritici; for pest or weed control at 50 ppm / pest or weed control at 200 ppm: % disease control rating
[1] = 24 h, one day protectant (1DP), 25 ppm, percent disease control rating, read-out: SETTTR 1DP 25 ppm
[2] = 24 h, one day protectant (1DP), percent disease control rating, read-out: SEPTTR 1DP 100 ppm
[3] = 72 h, three day curative (3DC), 25 ppm, percent disease control rating, read-out: SEPTTR 3DC 25 ppm
[4] = 72 h, three day curative (3DC), percent disease control rating, read-out: SEPTTR 3DC 100 ppm
[5] = 24 h, one day protectant (1DP), 25 ppm (first 1DP column), percent control rating, read-out: SETTTR 1DP 25 ppm
[6] = 24 h, one day protectant (1DP), 25 ppm as printed (second 1DP column), percent control rating, read-out: SETTTR 1DP 25 ppm
[7] = 72 h, three day curative (3DC), 25 ppm, percent control rating, read-out: SEPTTR 3DC 25 ppm
[8] = 72 h, three day curative (3DC), percent control rating, read-out: SEPTTR 3DC 100 ppm
[9] = 24 h, one day protectant (1DP), 25 ppm, rating of percent disease control, read-out: SETTTR 1DP 25 ppm
[10] = 24 h, one day protectant (1DP), rating of percent disease control, read-out: SEPTTR 1DP 100 ppm
[11] = 72 h, three day curative (3DC), 25 ppm, rating of percent disease control, read-out: SEPTTR 3DC 25 ppm
[12] = 72 h, three day curative (3DC), rating of percent disease control, read-out: SEPTTR 3DC 100 ppm

Fc1cnc(OCc2ccccc2)nc1N/N=C/C1CC1 [Compound 105]
pest or weed control at 25 ppm [1]: 0 to 25% | pest or weed control at 100 ppm [2]: 0 to 25% | pest or weed control at 25 ppm [3]: 0 to 25% | pest or weed control at 100 ppm [4]: 0 to 25%

Cc1cccc(COc2ncc(F)c(N)n2)n1 [Compound 78]
pest or weed control at 25 ppm [1]: 76 to 100% | pest or weed control at 100 ppm [2]: 76 to 100% | pest or weed control at 25 ppm [3]: 76 to 100% | pest or weed control at 100 ppm [4]: 76 to 100%

C/C(=N\Nc1nc(O)ncc1F)c1ccc(Br)cc1 [Compound 1108]
pest or weed control at 25 ppm [5]: 0 to 25% | pest or weed control at 25 ppm [6]: 0 to 25% | pest or weed control at 25 ppm [7]: 0 to 25% | pest or weed control at 100 ppm [8]: 0 to 25%

CC(Oc1ncc(F)c(N)n1)c1ccc([N+](=O)[O-])cc1 (centres unmarked) [Compound 393]
pest or weed control at 25 ppm [9]: 26 to 50% | pest or weed control at 100 ppm [10]: 76 to 100% | pest or weed control at 25 ppm [11]: 26 to 50% | pest or weed control at 100 ppm [12]: 76 to 100%

CN(Cc1ccccc1)c1nc(O)ncc1F [Compound 957, 4-(Benzylmethylamino)-5-fluoropyrimidin-2-ol]
pest or weed control at 25 ppm [5]: 0 to 25% | pest or weed control at 25 ppm [6]: 0 to 25% | pest or weed control at 25 ppm [7]: 26 to 50% | pest or weed control at 100 ppm [8]: 26 to 50%

Nc1nc(OCc2c(F)cc(Br)cc2F)ncc1F [Compound 154]
pest or weed control at 25 ppm [1]: 76 to 100% | pest or weed control at 100 ppm [2]: 76 to 100% | pest or weed control at 25 ppm [3]: 76 to 100% | pest or weed control at 100 ppm [4]: 76 to 100%

CONc1nc(OC)ncc1F [Compound 1058]
pest or weed control at 25 ppm [5]: 0 to 25% | pest or weed control at 25 ppm [6]: 0 to 25% | pest or weed control at 25 ppm [7]: 0 to 25% | pest or weed control at 100 ppm [8]: 0 to 25%

CCCNC(=O)N(C(=O)NCCC)c1nc(OCc2cccc(F)c2)ncc1F [Compound 445]
pest or weed control at 25 ppm [9]: 51 to 75% | pest or weed control at 100 ppm [10]: 76 to 100% | pest or weed control at 25 ppm [11]: 76 to 100% | pest or weed control at 100 ppm [12]: 76 to 100%

C=CCOc1ncc(F)c(/N=N/c2ccccc2F)n1 [Compound 1099]
pest or weed control at 25 ppm [5]: 0 to 25% | pest or weed control at 25 ppm [6]: 0 to 25% | pest or weed control at 25 ppm [7]: 0 to 25% | pest or weed control at 100 ppm [8]: 0 to 25%

Cc1ccc(CNc2nc(OCc3ccco3)ncc2F)cc1 [Compound 914]
pest or weed control at 50 ppm (24 h, one day protectant): 0 to 25% | pest or weed control at 200 ppm (24 h, one day protectant): 76 to 100%

C=CCOc1ncc(F)c(N)n1 [Compound 932]
pest or weed control at 50 ppm (24 h, one day protectant): 76 to 100% | pest or weed control at 200 ppm (24 h, one day protectant): 76 to 100%

Nc1nc(OS(=O)(=O)c2ccc(Cl)cc2)ncc1F [Compound 611]
pest or weed control at 25 ppm (24 h, one day protectant, 25 ppm, rating of percent disease control, read-out: SETTTR 1DP 25 ppm): 76 to 100% | pest or weed control at 100 ppm (24 h, one day protectant, rating of percent disease control, read-out: SEPTTR 1DP 100 ppm): 76 to 100% | pest or weed control at 25 ppm (72 h, three day curative, 25 ppm, rating of percent disease control, read-out: SEPTTR 3DC 25 ppm): 76 to 100% | pest or weed control at 100 ppm (72 h, three day curative, rating of percent disease control, read-out: SEPTTR 3DC 100 ppm): 76 to 100%

CC(C)C(=O)NNc1nc(OCc2ccc(F)cc2)ncc1F [Compound 793]
pest or weed control at 25 ppm [9]: 0 to 25% | pest or weed control at 100 ppm [10]: 0 to 25% | pest or weed control at 25 ppm [11]: 0 to 25% | pest or weed control at 100 ppm [12]: 0 to 25%

Fc1ccc(COc2ncc(F)c(NCc3cccs3)n2)c(F)c1 [Compound 923]
pest or weed control at 200 ppm (24 h, one day protectant): 76 to 100%

Cc1ccc(CN(C)c2nc(O)ncc2F)cc1 [Compound 1069]
pest or weed control at 25 ppm [5]: 0 to 25% | pest or weed control at 25 ppm [6]: 0 to 25% | pest or weed control at 25 ppm [7]: 51 to 75% | pest or weed control at 100 ppm [8]: 51 to 75%

Nc1nc(OCc2cc(Cl)cc(Cl)c2)ncc1F [Compound 404]
pest or weed control at 25 ppm [9]: 76 to 100% | pest or weed control at 100 ppm [10]: 76 to 100% | pest or weed control at 25 ppm [11]: 76 to 100% | pest or weed control at 100 ppm [12]: 76 to 100%

C=CCOC(=O)Nc1nc(OCc2ccc(C)cc2)ncc1F [Compound 987]
pest or weed control at 25 ppm [5]: 76 to 100% | pest or weed control at 25 ppm [6]: 76 to 100% | pest or weed control at 25 ppm [7]: 76 to 100% | pest or weed control at 100 ppm [8]: 76 to 100%

Cn1nc(-c2ccccc2)nc1-c1ccccc1COc1ncc(F)c(N)n1 [Compound 320]
pest or weed control at 25 ppm [9]: 0 to 25% | pest or weed control at 100 ppm [10]: 0 to 25% | pest or weed control at 25 ppm [11]: 26 to 50% | pest or weed control at 100 ppm [12]: 26 to 50%

N#Cc1cccc(COc2ncc(F)c(NCO)n2)c1 [Compound 153]
pest or weed control at 25 ppm [1]: 76 to 100% | pest or weed control at 100 ppm [2]: 76 to 100% | pest or weed control at 25 ppm [3]: 76 to 100% | pest or weed control at 100 ppm [4]: 76 to 100%

Nc1nc(OCCCc2ccncc2)ncc1F [Compound 768]
pest or weed control at 25 ppm [9]: 0 to 25% | pest or weed control at 100 ppm [10]: 26 to 50% | pest or weed control at 25 ppm [11]: 0 to 25% | pest or weed control at 100 ppm [12]: 26 to 50%

CCCCCOC(=O)Nc1nc(OCc2ccc(C)cc2)ncc1F [Compound 986]
pest or weed control at 25 ppm [5]: 76 to 100% | pest or weed control at 25 ppm [6]: 76 to 100% | pest or weed control at 25 ppm [7]: 76 to 100% | pest or weed control at 100 ppm [8]: 76 to 100%
